Results as given in the CombiSolv-Exp solvation set (Vermeire and Green 2021).

Test: solvent given as SMILES

C=CCC(C)(C)C
Conditions | solvation free energy, 298 K [kcal/mol]
in C=CCCCCCCCCCCCCCC | -3.59
in O | 1.53

OC(F)(C(F)F)C(F)(F)F (stereo unspecified)
Conditions | solvation free energy, 298 K [kcal/mol]
in CO | -6.53

CC(C)C=O
Conditions | solvation free energy, 298 K [kcal/mol]
in CC(=O)N(C)C | -4.04
in CCCCN(C=O)CCCC | -3.78
in CCOC(C)=O | -4.05
in CN1CCCC1=O | -3.79
in CN1CCCCC1=O | -3.92
in CN(C)C=O | -4.09
in CNC(C)=O | -3.68
in O | -2.86
in O=CN1CCOCC1 | -3.63

CC1=CC2C(CC1)C2(C)C (stereo unspecified)
Conditions | solvation free energy, 298 K [kcal/mol]
in O | 0.78

CC1CCC(C)(C)C1 (stereo unspecified)
Conditions | solvation free energy, 298 K [kcal/mol]
in O | 2.47

Nc1ccc(S(=O)(=O)Nc2ccnn2-c2ccccc2)cc1
Conditions | solvation free energy, 298 K [kcal/mol]
in O | -21.2

CCC(C)(C)C(=O)OC1CC(C)C=C2C=CC(C)C(CCC3CC(O)CC(=O)O3)C21 (stereo unspecified)
Conditions | solvation free energy, 298 K [kcal/mol]
in CC(=O)OC(C)C | -25
in CC(=O)OCC(C)C | -24.9
in CCC(C)O | -25.1
in CCC(C)OC(C)=O | -24.9
in CCCCCCCCO | -24.8
in CCCCCCO | -25
in CCCCCO | -25
in CCCCO | -25.1
in CCCCOC(C)=O | -25
in CCCO | -25.1
in CCCOC(C)=O | -25
in CCO | -25.1
in CCOC(C)=O | -25.1
in COC(C)=O | -25.1

Nc1cccc2ccccc12
Conditions | solvation free energy, 298 K [kcal/mol]
in CCCCCC | -8.87
in CCCCCCCC | -8.82
in O | -7.4

O=[N+]([O-])c1cccc(O)c1
Conditions | solvation free energy, 298 K [kcal/mol]
in CCCCCC | -7.79
in CCCCCCC | -7.72
in CCCCCCCC | -7.83
in CCCCCCCCCC | -7.74
in O | -9.63

CCCN(C)N=O
Conditions | solvation free energy, 298 K [kcal/mol]
in CC(C)CC(C)(C)C | -4.99

O=C(Oc1ccccc1)c1ccccc1O
Conditions | solvation free energy, 298 K [kcal/mol]
in CC(C)CO | -12.2
in CC(C)O | -12.2
in CCC(C)O | -12.5
in CCCCO | -12.4
in CCCO | -12.4
in CCO | -12.4
in CO | -12.5

CCCCCCc1cccc2ccccc12
Conditions | solvation free energy, 298 K [kcal/mol]
in OCCOCCO | -8.95

COCCN
Conditions | solvation free energy, 298 K [kcal/mol]
in O | -6.55

CCOC(OCC)Oc1ccccc1
Conditions | solvation free energy, 298 K [kcal/mol]
in O | -5.23

Cc1ccccc1
Conditions | solvation free energy, 298 K [kcal/mol]
in Brc1ccccc1 | -5.15
in C1CCCCC1 | -4.89
in C1CCOC1 | -5.44
in C1COCCO1 | -5.15
in C=CCCCCCCCCCCCCCC | -4.57
in CC1CCS(=O)(=O)C1 | -4.64
in CC1COC(=O)O1 | -4.43
in CC#N | -4.72
in CC(=O)N(C)C | -4.91
in CC(=O)O | -4.57
in CC(=O)c1ccccc1 | -4.93
in CC(C)(C)O | -4.41
in CC(C)=O | -4.97
in CC(C)CC(C)(C)C | -4.66
in CC(C)CCCC(C)CCCC(C)CCCCC(C)CCCC(C)CCCC(C)C | -4.43
in CC(C)CCO | -4.47
in CC(C)CO | -4.37
in CC(C)O | -4.38
in CC(C)OC(C)C | -4.89
in CC(Cl)Cl | -5.32
in CC(O)CO | -3.58
in CCBr | -5.44
in CCC#N | -5.16
in CCC(C)=O | -5.07
in CCCC#N | -5.01
in CCCCC | -4.75
in CCCCC(CC)COC(=O)CCCCC(=O)OCC(CC)CCCC | -4.78
in CCCCC(CC)COC(=O)c1ccccc1C(=O)OCC(CC)CCCC | -4.55
in CCCCCC | -4.78
in CCCCCCC | -4.74
in CCCCCCCCCC | -4.66
in CCCCCCCCCCCCCCCC | -4.57
in CCCCCCCCO | -4.5
in CCCCCCO | -4.53
in CCCCCO | -4.49
in CCCCCl | -5.16
in CCCCN(C=O)CCCC | -4.91
in CCCCO | -4.52
in CCCCOC(=O)c1ccccc1C(=O)OCCCC | -4.82
in CCCCOC(C)=O | -5.5
in CCCCOCCCC | -4.88
in CCCO | -4.51
in CCN1CCCC1=O | -5.06
in CCN(CC)C(C)=O | -4.97
in CCN(CC)CC | -4.93
in CCNC(C)=O | -4.57
in CCNC=O | -4.49
in CCO | -4.46
in CCOC(=O)c1ccccc1C(=O)OCC | -4.68
in CCOC(C)=O | -5.04
in CCOCC | -5.12
in CCOCCOCCOCC | -4.96
in CCOc1ccccc1 | -5.02
in CN1CCCC1=O | -4.95
in CN1CCCCC1=O | -5.02
in CN(C)C=O | -4.89
in CN(C)P(=O)(N(C)C)N(C)C | -5
in CNC(C)=O | -4.57
in CNC=O | -4.35
in CO | -4.35
in COCCO | -4.55
in COc1ccccc1 | -5.04
in CS(C)=O | -4.53
in Cc1ccc(C)cc1 | -5.08
in Cc1cccc(C)n1 | -5.1
in Cc1cccc(O)c1 | -4.63
in Cc1ccccn1 | -5.12
in ClC(Cl)(Cl)Cl | -5.18
in ClC(Cl)Cl | -5.53
in ClCCCl | -5.3
in ClCCl | -5.5
in Clc1ccccc1 | -5.2
in FC(F)(F)C(F)(F)C(F)(F)C(F)(F)C(F)(F)C(F)(F)F | -3.08
in Fc1c(F)c(F)c(F)c(F)c1F | -5.33
in Fc1ccccc1 | -5.24
in ICI | -4.53
in Ic1ccccc1 | -5.03
in NC=O | -3.02
in NCCO | -3.5
in Nc1ccccc1 | -4.6
in O | -0.85
in O=C1CCCCC1 | -5.13
in O=C1CCCO1 | -4.72
in O=CN1CCOCC1 | -4.48
in O=Cc1ccco1 | -4.56
in OCCCCCO | -3.84
in OCCCCO | -3.79
in OCCCO | -3.52
in OCCO | -3.02
in OCCOCCOCCOCCO | -3.99
in OCCS | -4.12
in OCc1ccccc1 | -4.53
in S=C=S | -5.33
in [2H]O[2H] | -0.99
in c1ccc2ncccc2c1 | -4.82
in c1ccc(COCc2ccccc2)cc1 | -4.79
in c1ccccc1 | -5.32
in c1ccncc1 | -5.11
